# Columns and labels:
# Cytochrome P450 1B1 [1] = target: T1, Cytochrome P450 1B1 (Homo sapiens, UniProt Q16678); experiment: Inhibition of human recombinant CYP1B1 using 7-ethoxyresorufin as substrate assessed as percent enzyme activity at 1 uM after 30 mins in presence of NADPH by EROD assay relative to control; design: scale not given: the % may be the effect or the level left; details: read-out: Activity
# T1 sequence (Q16678 whole entry): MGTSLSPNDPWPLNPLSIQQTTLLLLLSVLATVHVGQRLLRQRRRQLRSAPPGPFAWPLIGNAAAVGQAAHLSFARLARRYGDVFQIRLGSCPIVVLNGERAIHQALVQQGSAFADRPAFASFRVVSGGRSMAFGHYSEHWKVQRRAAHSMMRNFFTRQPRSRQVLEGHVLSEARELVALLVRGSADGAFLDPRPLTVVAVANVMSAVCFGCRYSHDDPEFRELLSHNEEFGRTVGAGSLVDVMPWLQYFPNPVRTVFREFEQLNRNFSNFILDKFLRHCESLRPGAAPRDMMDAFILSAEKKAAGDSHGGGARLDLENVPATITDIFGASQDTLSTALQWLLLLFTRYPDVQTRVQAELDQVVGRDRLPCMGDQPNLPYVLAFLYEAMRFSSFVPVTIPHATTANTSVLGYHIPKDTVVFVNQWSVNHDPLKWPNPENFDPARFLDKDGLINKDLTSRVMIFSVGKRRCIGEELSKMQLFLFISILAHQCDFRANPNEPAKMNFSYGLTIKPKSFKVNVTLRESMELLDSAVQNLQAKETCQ
# CYP1A1 = target: T2, CYP1A1 (Homo sapiens, UniProt P04798); experiment: Inhibition of human recombinant CYP1A1 using 7-ethoxyresorufin as substrate assessed as percent enzyme activity at 1 uM after 15 mins in presence of NADPH by EROD assay relative to control; format: ADME; design: scale not given: the % may be the effect or the level left; details: recombinant CYP1A1, probe 7-ethoxyresorufin, read-out: Activity
# T2 sequence (P04798 whole entry): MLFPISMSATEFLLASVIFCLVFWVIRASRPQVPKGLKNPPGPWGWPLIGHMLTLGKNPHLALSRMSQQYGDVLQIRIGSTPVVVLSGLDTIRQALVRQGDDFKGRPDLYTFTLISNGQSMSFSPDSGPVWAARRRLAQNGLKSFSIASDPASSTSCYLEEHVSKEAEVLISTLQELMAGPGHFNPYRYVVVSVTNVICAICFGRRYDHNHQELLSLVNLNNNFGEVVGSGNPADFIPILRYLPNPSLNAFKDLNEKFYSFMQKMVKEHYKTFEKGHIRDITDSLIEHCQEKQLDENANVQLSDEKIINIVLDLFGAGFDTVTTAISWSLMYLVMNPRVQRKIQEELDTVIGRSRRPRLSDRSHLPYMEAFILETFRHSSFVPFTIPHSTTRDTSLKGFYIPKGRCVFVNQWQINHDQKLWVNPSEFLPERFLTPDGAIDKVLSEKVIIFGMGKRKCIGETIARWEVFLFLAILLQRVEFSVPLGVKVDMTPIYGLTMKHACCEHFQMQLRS
# CYP1A2 = target: T3, CYP1A2 (Homo sapiens, UniProt P05177); experiment: Inhibition of human recombinant CYP1A2 using 7-ethoxyresorufin as substrate assessed as percent enzyme activity at 1 uM after 30 mins in presence of NADPH by EROD assay relative to control; format: ADME; design: scale not given: the % may be the effect or the level left; details: recombinant CYP1A2, probe 7-ethoxyresorufin, read-out: Activity
# T3 sequence (P05177 whole entry): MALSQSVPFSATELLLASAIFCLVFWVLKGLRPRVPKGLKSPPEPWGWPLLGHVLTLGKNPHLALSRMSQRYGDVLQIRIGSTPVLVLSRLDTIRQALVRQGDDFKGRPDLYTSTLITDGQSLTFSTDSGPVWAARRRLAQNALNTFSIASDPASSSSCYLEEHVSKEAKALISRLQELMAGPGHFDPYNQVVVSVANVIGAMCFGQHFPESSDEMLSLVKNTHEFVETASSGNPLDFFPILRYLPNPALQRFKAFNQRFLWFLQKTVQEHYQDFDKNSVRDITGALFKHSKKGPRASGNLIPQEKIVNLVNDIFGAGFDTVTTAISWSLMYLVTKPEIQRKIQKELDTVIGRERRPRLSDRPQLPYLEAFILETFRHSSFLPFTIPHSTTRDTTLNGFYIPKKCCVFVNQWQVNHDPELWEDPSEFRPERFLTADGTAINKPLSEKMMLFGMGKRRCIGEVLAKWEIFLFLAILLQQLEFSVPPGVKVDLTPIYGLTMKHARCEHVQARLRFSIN
# Cytochrome P450 1B1 [2] = target: T1, Cytochrome P450 1B1; experiment: Inhibition of human recombinant CYP1B1 using 7-ethoxyresorufin as substrate after 30 mins in presence of NADPH by EROD assay
# Cytochrome P450 1A1 = target: T4, Cytochrome P450 1A1 (Homo sapiens, UniProt P04798); experiment: Inhibition of human recombinant CYP1A1 using 7-ethoxyresorufin as substrate after 15 mins in presence of NADPH by EROD assay; format: ADME
# T4 sequence (P04798 whole entry): T2 sequence (P04798 whole entry)
# Cytochrome P450 1A2 = target: T5, Cytochrome P450 1A2 (Homo sapiens, UniProt P05177); experiment: Inhibition of human recombinant CYP1A2 using 7-ethoxyresorufin as substrate after 30 mins in presence of NADPH by EROD assay; format: ADME
# T5 sequence (P05177 whole entry): T3 sequence (P05177 whole entry)
# Homo sapiens [3] = organism: Homo sapiens; experiment: Selectivity ratio of IC50 for human recombinant CYP1A1 to IC50 for human recombinant CYP1B1
# Homo sapiens [4] = organism: Homo sapiens; experiment: Selectivity ratio of IC50 for human recombinant CYP1A2 to IC50 for human recombinant CYP1B1
# Cytochrome P450 1B1 [5] = target: T1, Cytochrome P450 1B1; experiment: Binding affinity to human C-terminal 4His-tagged CYP1B1 expressed in Escherichia coli DH5alpha assessed as spectral dissociation constant by spectrophotometric analysis; details: read-out: Ks
# [6] = Aqueous solubility of compound in 9:1 PBS/ethanol buffer by shake flask method; format: physicochemical
Compound,"activity at 0.5 h, 1 µM (Cytochrome P450 1B1 [1]) [%]","activity at 0.25 h, 1 µM (CYP1A1) [%]","activity at 0.5 h, 1 µM (CYP1A2) [%]",IC50 (Cytochrome P450 1B1 [2]) [µM],IC50 (Cytochrome P450 1A1) [µM],IC50 (Cytochrome P450 1A2) [µM],Ratio IC50 (Homo sapiens [3]),Ratio IC50 (Homo sapiens [4]),Kd (Cytochrome P450 1B1 [5]) [µM],solubility thermodynamic [6] [µM]
C=C=C[C@H]1CC[C@H](c2cc(=O)c3ccc4ccccc4c3o2)CC1,-0.4,3,-4.5,0.0134,0.0136,0.0364,1.02,2.7,2.4,–
O=c1cc(C2CCCCC2)oc2c1ccc1ccccc12,25.4,51.5,51.8,0.54,–,–,–,–,5.9,9.65
C=C=C[C@H]1CC[C@@H](c2cc(=O)c3ccc4ccccc4c3o2)CC1,3.1,5.5,4.3,0.0681,0.033,–,0.48,–,25.4,–
O=c1cc([C@H]2CC[C@H](S)CC2)oc2c1ccc1ccccc12,1.8,1.3,0.6,0.0403,0.146,0.689,3.6,17.1,8.9,–
[N-]=[N+]=N[C@H]1CC[C@@H](c2cc(=O)c3ccc4ccccc4c3o2)CC1,-15.3,39.6,29.6,0.0044,0.525,0.667,120,153,2.6,2.67
O=c1cc([C@H]2CC[C@@H](S)CC2)oc2c1ccc1ccccc12,0.5,3.9,–,0.0388,0.0762,–,1.97,–,9.4,–
[N-]=[N+]=Nc1cccc(-c2cc(=O)c3ccc4ccccc4c3o2)c1,0.7,1.4,6.9,0.0018,0.0271,0.0747,15.5,42.8,0.8,–
O=c1cc(-c2ccc(O)cc2)oc2c1ccc1ccccc12,3.7,6.3,10.4,0.0434,0.043,0.909,0.99,21,–,–
CC1CCC(c2cc(=O)c3ccc4ccccc4c3o2)CC1 (mixture of isomers),23.9,50.2,63,–,–,–,–,–,5.7,–
[N-]=[N+]=NCC1CCC(c2cc(=O)c3ccc4ccccc4c3o2)CC1 (mixture of isomers),2.2,6.3,22.3,0.0235,0.216,0.433,9.2,18.5,3.9,–

# Second part, the compound after the results:
"activity at 0.5 h, 1 µM (Cytochrome P450 1B1 [1]) [%]","activity at 0.25 h, 1 µM (CYP1A1) [%]","activity at 0.5 h, 1 µM (CYP1A2) [%]",IC50 (Cytochrome P450 1B1 [2]) [µM],IC50 (Cytochrome P450 1A1) [µM],IC50 (Cytochrome P450 1A2) [µM],Ratio IC50 (Homo sapiens [3]),Ratio IC50 (Homo sapiens [4]),Kd (Cytochrome P450 1B1 [5]) [µM],solubility thermodynamic [6] [µM],Compound
-4,36.1,42.5,0.0903,–,–,–,–,–,–,[N-]=[N+]=NC1CCCC(c2cc(=O)c3ccc4ccccc4c3o2)C1 (mixture of isomers)
-1.3,3.8,42.7,0.0243,0.065,–,2.7,–,4,–,CC(=O)S[C@H]1CC[C@@H](c2cc(=O)c3ccc4ccccc4c3o2)CC1
-4.7,1.1,45.4,0.0294,0.0159,0.991,0.54,33.7,6.7,–,CC(=O)S[C@H]1CC[C@H](c2cc(=O)c3ccc4ccccc4c3o2)CC1
-1.8,39.5,46.5,0.135,1.04,1.19,7.7,8.8,5.4,–,[N-]=[N+]=N[C@H]1CC[C@H](c2cc(=O)c3ccc4ccccc4c3o2)CC1
-2.5,0,–,0.0661,0.134,–,2.02,–,8.1,–,O=c1cc(C2CCCC(S)C2)oc2c1ccc1ccccc12 (mixture of isomers)
-0.5,2.3,-13.6,0.0026,0.0095,0.0938,3.6,35.6,0.9,< 1,[N-]=[N+]=Nc1ccc(-c2cc(=O)c3ccc4ccccc4c3o2)cc1
-12.9,3.2,21.2,–,–,–,–,–,1.1,–,O=c1cc(C2=CCCCC2)oc2c1ccc1ccccc12

# Source: ChEMBL document CHEMBL4308906, “Design and synthesis of selective CYP1B1 inhibitor via dearomatization of α-naphthoflavone” (Bioorg Med Chem, 2019)
